IC50 data for 25 compounds are collected here from patent publication US12528792B2, “Sulfonamide compounds and the use thereof in the treatment of cancer” (TROBIO THERAPEUTICS PTY LTD, priority 2019, dated 2026).

As usually defined, the IC50 is the concentration at which inhibition is half-maximal. High values mean weaker potency, low ones greater potency.

One assay relates to A2780 (ovarian) cells. The assay is described as follows: Anti-proliferative activity, Cell-Titre luminescent viability assay. As to conditions: Homo sapiens, 72 h exposure, Cell-Titre luminescent reagent. The assay is classed as cell-based. Here is the method:
(§1) The ability of compounds of the disclosure to inhibit the proliferation of cancer cells representative of non-small cell lung cancer and ovarian cancer (Table 1), and pancreatic cancer, colorectal cancer and prostate cancer (Table 2) was assessed. Briefly, a predetermined number of cells as calculated from cell growth assays for each of the cell lines employed were seeded into their respective culture medium (using ATCC culture parameters—http://www.atcc.org) and cultured for 24 h at 37° C. and 5% CO2 in 96-well culture plates. Once attached, each cell line was then exposed to various concentrations of each respective analogue (100, 30, 10, 3, 1 and 0.3 µM or 30, 10, 3, 1, 0.3 and 0.1 μM), cultured for a further 72 h and exposed to Cell-Titre luminescent reagent (100 μL/well) for a further 30 min. Luminescence was captured using an EnVision multilabel reader and the data for each analogue concentration compared against no treatment control. Cell viability was normalised to control (vehicle alone) and dose response curves, and half maximal effective concentration (EC50) values were determined using Graph Pad Prism 6 (nonlinear regression sigmoidal dose-response variable slope).

A further assay deals with A549 (NSCLC) cells. The assay is described as above. The assay is classed as cell-based. As to conditions: Homo sapiens, 72 h exposure, Cell-Titre luminescent reagent. The protocol:
as §1

Molecules are shown by their SMILES.

In the case of `Cc1ccc(NC(=O)C2CCN(S(=O)(=O)c3ccc4c(c3)CCN4)CC2)cc1O` [Compound 4, N-(3-hydroxy-4-methylphenyl)-1-(indolin-5-ylsulfonyl)piperidine-4-carboxamide], the IC50 in the assay on A2780 (ovarian) cells and in the assay with A549 (NSCLC) cells was above 100 µM throughout.

In the case of `CCC(C)c1ccc(NC(=O)c2ccn(S(=O)(=O)c3ccc4[nH]ccc4c3)c2)cc1F` (centres unmarked) [Compound 94, 1-((1H-indol-5-yl)sulfonyl)-N-(4-(sec-butyl)-3-fluorophenyl)-1H-pyrrole-3-carboxamide], the results for the IC50 with A2780 (ovarian) cells and in the assay with A549 (NSCLC) cells were 4.32 µM and 7.92 µM, respectively.

On to `CNC(=O)C1CCN(S(=O)(=O)c2cc(C(N)=O)n(C)c2)CC1` [Compound 32, 1-((5-carbamoyl-1-methyl-1H-pyrrol-3-yl)sulfonyl)-N-methylpiperidine-4-carboxamide], for which the IC50 with A2780 (ovarian) cells and with A549 (NSCLC) cells was above 100 µM each time.

For the compound `Cc1cccc(F)c1NC(=O)c1ccn(S(=O)(=O)c2ccc3[nH]ccc3c2)c1` [Compound 55, 1-((1H-indol-5-yl)sulfonyl)-N-(2-fluoro-6-methylphenyl)-1H-pyrrole-3-carboxamide], the IC50 with A2780 (ovarian) cells and in the assay with A549 (NSCLC) cells was above 30 µM in each case.

Turning to `Cn1cc(S(=O)(=O)N2CCC(C(=O)NC3CCCCC3)CC2)cc1C(N)=O` [Compound 31, 1-((5-carbamoyl-1-methyl-1H-pyrrol-3-yl)sulfonyl)-N-cyclohexylpiperidine-4-carboxamide], the IC50 in the assay on A2780 (ovarian) cells and in the assay with A549 (NSCLC) cells was above 100 µM throughout.

Consider `CCC(C)c1ccc(NC(=O)c2ccn(S(=O)(=O)c3ccc4[nH]ccc4c3)n2)cc1F` (centres unmarked) [Compound 106, 1-((1H-indol-5-yl)sulfonyl)-N-(4-(sec-butyl)-3-fluorophenyl)-1H-pyrazole-3-carboxamide], for which the IC50 is 9.85 µM with A2780 (ovarian) cells and 5.44 µM in the assay on A549 (NSCLC) cells.

As to `CC(C)c1ccc(NC(=O)c2ccn(S(=O)(=O)c3ccc4[nH]ccc4c3)c2)cc1F` [Compound 95, 1-((1H-indol-5-yl)sulfonyl)-N-(3-fluoro-4-isopropylphenyl)-1H-pyrrole-3-carboxamide], the results for the IC50 in the assay on A2780 (ovarian) cells and in the assay with A549 (NSCLC) cells were 5.28 µM and 7.84 µM, respectively.

In the case of `Cc1ccc(NC(=O)C2CCN(S(=O)(=O)c3cc(C(N)=O)n(C)c3)CC2)cc1O` [Compound 1, 1-((5-carbamoyl-1-methyl-1H-pyrrol-3-yl)sulfonyl)-N-(3-hydroxy-4-methylphenyl)piperidine-4-carboxamide], the IC50 with A2780 (ovarian) cells and with A549 (NSCLC) cells was above 100 µM each time.

Turning to `O=C(Nc1ccc(F)cn1)c1ccn(S(=O)(=O)c2ccc3[nH]ccc3c2)c1` [Compound 72], the results for the IC50 with A2780 (ovarian) cells and in the assay with A549 (NSCLC) cells were above 30 µM and 3.45 µM, respectively.

For `CCC(C)c1ccc(CCNC(=O)c2ccn(S(=O)(=O)c3ccc(C(C)(C)C)cc3)c2)cc1` (centres unmarked) [Compound 88, N-(4-(sec-butyl)phenethyl)-1-((4-(tert-butyl)phenyl)sulfonyl)-1H-pyrrole-3-carboxamide], the IC50 in the assay on A2780 (ovarian) cells and with A549 (NSCLC) cells was above 30 µM in each case.

As for `CC(C)Cc1ccc(NC(=O)c2ccn(S(=O)(=O)c3ccc4[nH]ccc4c3)n2)cc1` [Compound 111, 1-((1H-indol-5-yl)sulfonyl)-N-(4-isobutylphenyl)-1H-pyrazole-3-carboxamide], the IC50 was 11.4 µM in the assay on A2780 (ovarian) cells and 6.85 µM with A549 (NSCLC) cells.

As to `O=C(Nc1ccc2c(c1)OCO2)c1ccn(S(=O)(=O)c2ccc3[nH]ccc3c2)n1` [Compound 117, 1-((1H-indol-5-yl)sulfonyl)-N-(benzo[d][1,3]dioxol-5-yl)-1H-pyrazole-3-carboxamide], the IC50 in the assay with A2780 (ovarian) cells and in the assay on A549 (NSCLC) cells was above 30 µM in each case.

Take `O=C(Nc1ccc(Cl)cc1)c1ccn(S(=O)(=O)c2ccc3[nH]ccc3c2)n1` [Compound 77, 1-((1H-indol-5-yl)sulfonyl)-N-(4-chlorophenyl)-1H-pyrazole-3-carboxamide]: the IC50 with A2780 (ovarian) cells is above 30 µM; in the assay on A549 (NSCLC) cells it was 19 µM.

Consider `COc1ccc(NC(=O)c2ccn(S(=O)(=O)c3ccc4[nH]ccc4c3)n2)cc1F` [Compound 116, 1-((1H-indol-5-yl)sulfonyl)-N-(3-fluoro-4-methoxyphenyl)-1H-pyrazole-3-carboxamide], for which the 50% inhibitory concentration (IC50) in the assay on A2780 (ovarian) cells was above 30 µM; in the assay on A549 (NSCLC) cells it was 13.4 µM.

With `O=C(Nc1ccc(F)cc1)c1ccn(S(=O)(=O)c2ccc3[nH]ccc3c2)n1` [Compound 76, 1-((1H-indol-5-yl)sulfonyl)-N-(4-fluorophenyl)-1H-pyrazole-3-carboxamide], the IC50 in the assay on A2780 (ovarian) cells is 23.8 µM; in the assay on A549 (NSCLC) cells it was above 30 µM.

For the compound `O=C(Nc1ccc(F)nc1)c1ccn(S(=O)(=O)c2ccc3[nH]ccc3c2)n1` [Compound 86, 1-((1H-indol-5-yl)sulfonyl)-N-(6-fluoropyridin-3-yl)-1H-pyrazole-3-carboxamide], the IC50 with A2780 (ovarian) cells and in the assay on A549 (NSCLC) cells was above 30 µM throughout.

`O=C(Nc1c(F)cccc1F)c1ccn(S(=O)(=O)c2ccc3[nH]ccc3c2)c1` [Compound 53, 1-((1H-indol-5-yl)sulfonyl)-N-(2,6-difluorophenyl)-1H-pyrrole-3-carboxamide]: the IC50 in the assay on A2780 (ovarian) cells and in the assay with A549 (NSCLC) cells was above 30 µM throughout.

With `O=C(Nc1ccc(Cl)cn1)c1ccn(S(=O)(=O)c2ccc3[nH]ccc3c2)c1` [Compound 73], the IC50 amounted to 11.2 µM in the assay with A2780 (ovarian) cells and 2.62 µM in the assay with A549 (NSCLC) cells.

For `CCC(C)c1ccc(NC(=O)c2ccn(S(=O)(=O)c3ccc4[nH]ccc4c3)n2)cc1` (centres unmarked) [Compound 105, 1-((1H-indol-5-yl)sulfonyl)-N-(4-(sec-butyl)phenyl)-1H-pyrazole-3-carboxamide], the IC50 in the assay with A2780 (ovarian) cells is 7.51 µM; in the assay on A549 (NSCLC) cells it was 8.51 µM.

For `O=C(Nc1ccc(F)c(F)c1)c1ccn(S(=O)(=O)c2ccc3[nH]ccc3c2)n1` [Compound 80, 1-((1H-indol-5-yl)sulfonyl)-N-(3,4-difluorophenyl)-1H-pyrazole-3-carboxamide], the IC50 is 13.2 µM in the assay with A2780 (ovarian) cells and 4.84 µM with A549 (NSCLC) cells.

Take `CC(C)(C)c1ccc(NC(=O)c2ccn(S(=O)(=O)c3ccc4[nH]ccc4c3)c2)cc1F` [Compound 101, 1-((1H-indol-5-yl)sulfonyl)-N-(4-(tert-butyl)-3-fluorophenyl)-1H-pyrrole-3-carboxamide]: the IC50 with A2780 (ovarian) cells turned out to be 4.53 µM; with A549 (NSCLC) cells, 5.17 µM.

As to `CCC(C)c1ccc(NC(=O)N2CCN(S(=O)(=O)c3cc(C(N)=O)n(C)c3)CC2)cc1` (centres unmarked) [Compound 9, N-(4-(sec-butyl)phenyl)-4-((5-carbamoyl-1-methyl-1H-pyrrol-3-yl)sulfonyl)piperazine-1-carboxamide], the IC50 with A2780 (ovarian) cells and in the assay on A549 (NSCLC) cells was above 100 µM throughout.

In the case of `O=C(Nc1ccc(Cl)cc1)c1ccn(S(=O)(=O)c2ccc3[nH]ccc3c2)c1` [Compound 66, 1-((1H-indol-5-yl)sulfonyl)-N-(4-chlorophenyl)-1H-pyrrole-3-carboxamide], the IC50 was 13.6 µM in the assay on A2780 (ovarian) cells and 15.9 µM in the assay on A549 (NSCLC) cells.

Turning to `CCCc1ccc(NC(=O)c2ccn(S(=O)(=O)c3ccc4[nH]ccc4c3)n2)cc1F` [Compound 110, 1-((1H-indol-5-yl)sulfonyl)-N-(3-fluoro-4-propylphenyl)-1H-pyrazole-3-carboxamide], the IC50 amounted to 7.5 µM in the assay with A2780 (ovarian) cells and 8.06 µM in the assay with A549 (NSCLC) cells.

As for `CC(C)Cc1ccc(NC(=O)c2ccn(S(=O)(=O)c3ccc4[nH]ccc4c3)c2)cc1F` [Compound 99, 1-((1H-indol-5-yl)sulfonyl)-N-(3-fluoro-4-isobutylphenyl)-1H-pyrrole-3-carboxamide], the IC50 in the assay with A2780 (ovarian) cells stood at 4.9 µM; in the assay on A549 (NSCLC) cells, 7.47 µM.
